Laboratory results taken from PubChem BioAssay AID588370 (NMMLSC, 2011).
Activity calls are given as the source filed them.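 Rule for the calls: active = cytotoxic compounds, leaving cell viability under 88%; inactive = viability at or above 88%.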

Test system: U937 viability, trypan blue exclusion, 24 h
Assay: cytotoxicity in U937 cells, cytotoxicity control for VLA-4 allosteric modulator project, cell-based, trypan blue (AID 588370)
Conditions: at 10 µM; hits give low values

Row | SMILES | viability
1 | c1ccc(-c2sc3ccccc3c2-c2ccc(OCCN3CCCC3)cc2)cc1 | 97% (inactive)
2 | CN(C)CCOc1ccc(-c2c(-c3ccccc3)sc3ccccc23)cc1 | 97% (inactive)
3 | COc1ccc(-c2sc3ccccc3c2-c2ccc(OCCN(C)C)cc2)cc1 | 96% (inactive)
4 | COc1cccc(-c2sc3ccccc3c2-c2ccc(OCCN3CCCC3)cc2)c1 | 84%
5 | COc1cccc(-c2sc3ccccc3c2-c2ccc(OCCN(C)C)cc2)c1 | 97% (inactive)
6 | c1ccc2c(-c3ccc(OCCN4CCCCC4)cc3)c(-c3ccsc3)sc2c1 | 96% (inactive)
7 | c1ccc2c(-c3ccc(OCCN4CCCC4)cc3)c(-c3ccsc3)sc2c1 | 93% (inactive)
